From US11753410B2, “Hormone receptor modulators for treating metabolic mutagenic and fibrotic conditions and disorders” (priority 2017, dated 2023)

Target: T1, ligand binding domain of human FXR (Homo sapiens, UniProt Q96RI1)
T1 construct: purchased Thermofisher (LanthaScreen) PV4833
T1 sequence (Q96RI1 262-486 limits assumed): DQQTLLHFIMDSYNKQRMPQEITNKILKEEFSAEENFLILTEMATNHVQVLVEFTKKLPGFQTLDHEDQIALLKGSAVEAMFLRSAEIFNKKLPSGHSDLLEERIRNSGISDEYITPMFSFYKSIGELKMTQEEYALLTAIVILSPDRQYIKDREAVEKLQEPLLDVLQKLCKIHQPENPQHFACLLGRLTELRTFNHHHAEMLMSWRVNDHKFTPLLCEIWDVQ
Experiment: biochemical
Conditions: for Emax: extent of activation relative to GW4064, read-out: Ligand Binding % Efficacy; for EC50: −log EC50, concentration required to produce 50% activation, FRET 520 nm/495 nm, 1 hour at room temperature, read-out: Ligand Binding pEC50 (converted)
Method: The affinity of FXR ligands for the ligand binding domain of FXR was determined using a commercially available human FXR ligand binding assay (LanthaScreen, Thermofisher Cat #PV4833). […] Binding of FXR ligands to the FXR ligand binding domain promotes binding of the fluorescein-labelled SRC2-2 peptide. This causes a FRET signal between the terbium-labelled anti-GST antibody and the fluorescein-labelled SRC peptide which are both bound to the FXR ligand binding domain.
Test compounds are dissolved in DMSO and a 3-fold serial dilution series is generated, then further diluted into assay buffer. The compounds are mixed with 5 nM GST-tagged FXR ligand binding domain, 5 nM Tb-labelled anti-GST antibody and 500 nM fluorescein-labelled SRC2-2 peptide in a pH7.4 buffer. The reaction is incubated at room temperature for 1 hour, then the FRET signal is measured as the ratio of the 520 nm/495 nm emission following excitation at 340 nm. The change in FRET signal is plotted against the test article concentration and fit to a 3-parameter logistical equation.

| Structure (SMILES) | Emax | EC50 |
| --- | --- | --- |
| CC[C@@H]1[C@@H]2C[C@@H](C[C@H]2OCc2c(C3CC3)cnn2-c2c(Cl)cccc2Cl)N1c1ccc(C(=O)O)cc1 [Compound I-16, 4-[(1S,3R,4S,5R)-5-{[4-cyclopropyl-1-(2,6-dichlorophenyl)-1H-pyrazol-5-yl]methoxy}-3-ethyl-2-azabicyclo[2.2.1]heptan-2-yl]benzoic acid] | 52% | 1 µM |
| C[C@@H]1[C@@H]2C[C@@H](C[C@H]2OCc2c(C3CC3)cnn2-c2c(Cl)cccc2Cl)N1c1ccc(C(=O)O)cc1 [Compound I-14, 4-[(1S,3R,4S,5R)-5-{[4-cyclopropyl-1-(2,6-dichlorophenyl)-1H-pyrazol-5-yl]methoxy}-3-methyl-2-azabicyclo[2.2.1]heptan-2-yl]benzoic acid] | 48% | 0.398 µM |
| O=C(O)c1ccc(N2C(=O)[C@@H]3C[C@H]2C[C@H]3OCc2c(C3CC3)cnn2-c2c(Cl)cccc2Cl)cc1F [Compound I-12, 4-[(1S,4R,5R)-5-{[4-cyclopropyl-1-(2,6-dichlorophenyl)-1H-pyrazol-5-yl]methoxy}-3-oxo-2-azabicyclo[2.2.1]heptan-2-yl]-2-fluorobenzoic acid] | 176% | 0.0398 µM |
| Cc1cccc(C)c1-n1ncc(C2CC2)c1CO[C@@H]1C[C@@H]2C[C@H]1CN2c1ccc(C(=O)O)c(F)c1 [Compound I-7, 4-[(1S,4S,5R)-5-{[4-cyclopropyl-1-(2,6-dimethylphenyl)-1H-pyrazol-5-yl]methoxy}-2-azabicyclo[2.2.1]heptan-2-yl]-2-fluorobenzoic acid] | 134% | 0.0251 µM |
| O=C(O)c1ncc(N2C[C@@H]3C[C@H]2C[C@H]3OCc2c(C3CC3)cnn2-c2c(Cl)cccc2Cl)cn1 [Compound I-6, 5-[(1S,4S,5R)-5-{[4-cyclopropyl-1-(2,6-dichlorophenyl)-1H-pyrazol-5-yl]methoxy}-2-azabicyclo[2.2.1]heptan-2-yl]pyrimidine-2-carboxylic acid] | 101% | – |
| O=C(O)CCc1ccc(N2C[C@@H]3C[C@H]2C[C@H]3OCc2c(C3CC3)cnn2-c2c(F)cccc2F)c(F)c1 [Compound I-35, 3-{4-[(1S,4S,5R)-5-{[4-cyclopropyl-1-(2,6-difluorophenyl)-1H-pyrazol-5-yl]methoxy}-2-azabicyclo[2.2.1]heptan-2-yl]-3-fluorophenyl}propanoic acid] | 152% | 0.631 µM |
| O=C(O)c1ccc(N2C[C@@H]3C[C@H]2C[C@H]3OCc2c(C3CC3)cnn2-c2c(Cl)cccc2Cl)nc1 [Compound I-4, 6-[(1S,4S,5R)-5-{[4-cyclopropyl-1-(2,6-dichlorophenyl)-1H-pyrazol-5-yl]methoxy}-2-azabicyclo[2.2.1]heptan-2-yl]pyridine-3-carboxylic acid] | 132% | 0.1 µM |
| O=C(O)c1ccc(N2C(=O)[C@@H]3C[C@H]2C[C@H]3OCc2c(C3CC3)cnn2-c2c(Cl)cccc2Cl)c(F)c1 [Compound I-13, 4-[(1S,4R,5R)-5-{[4-cyclopropyl-1-(2,6-dichlorophenyl)-1H-pyrazol-5-yl]methoxy}-3-oxo-2-azabicyclo[2.2.1]heptan-2-yl]-3-fluorobenzoic acid] | 142% | 0.158 µM |
| O=C(O)c1ccc(N2C(=O)[C@@H]3C[C@H]2C[C@H]3OCc2c(C3CC3)cnn2-c2c(Cl)cccc2Cl)cc1 [Compound I-11, 4-[(1S,4R,5R)-5-{[4-cyclopropyl-1-(2,6-dichlorophenyl)-1H-pyrazol-5-yl]methoxy}-3-oxo-2-azabicyclo[2.2.1]heptan-2-yl]benzoic acid] | 152% | 0.0398 µM |
| O=C(NS(=O)(=O)C1CCOCC1)c1ccc(N2C(=O)[C@@H]3C[C@H]2C[C@H]3OCc2c(C3CC3)cnn2-c2c(Cl)cccc2Cl)cc1F [Compound I-27, 4-((1S,4R,5R)-5-((4-cyclopropyl-1-(2,6-dichlorophenyl)-1H-pyrazol-5-yl)methoxy)-3-oxo-2-azabicyclo[2.2.1]heptan-2-yl)-2-fluoro-N-((tetrahydro-2H-pyran-4-yl)sulfonyl)benzamide] | 185% | 0.00501 µM |
